Measurements: patent publication US20240109930A1, “TRIAZOLYL-METHYL SUBSTITUTED ALPHA-D-GALACTOPYRANOSIDE DERIVATIVES” (Idorsia Pharmaceuticals Ltd, priority 2021, published 2024)

Columns and labels:
human Gal-1 (hGal-1) = human Gal-1 (hGal-1) (Homo sapiens, UniProt P09382, C131S/C17S/C43S/C61S/C89S); experiment: Competitive binding assay: biotinylated hGal-1 binding to microplate-adsorbed asialofetuin (ASF); settings: IC50 values from several measurements given as geomean
Procedure, shortened: (§1)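 Biotinylated hGal-3 or hGal-1 (preferably cysteine-free Cys→Ser mutant), 300–1000 ng/mL, competes with compound for ASF-coated wells for 3 h at 4 °C. Bound lectin detected with streptavidin-peroxidase (80 ng/mL, 1 h, 4 °C) and ABTS by absorbance; IC50 reported as geomean of several runs.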

human Gal-3 (hGal-3) = human Gal-3 (hGal-3) (Homo sapiens (Human), UniProt P17931); experiment: Competitive binding assay: biotinylated hGal-3 binding to microplate-adsorbed asialofetuin (ASF); settings: IC50 values from several measurements given as geomean
Sequence of human Gal-3 (hGal-3) (P17931 whole entry): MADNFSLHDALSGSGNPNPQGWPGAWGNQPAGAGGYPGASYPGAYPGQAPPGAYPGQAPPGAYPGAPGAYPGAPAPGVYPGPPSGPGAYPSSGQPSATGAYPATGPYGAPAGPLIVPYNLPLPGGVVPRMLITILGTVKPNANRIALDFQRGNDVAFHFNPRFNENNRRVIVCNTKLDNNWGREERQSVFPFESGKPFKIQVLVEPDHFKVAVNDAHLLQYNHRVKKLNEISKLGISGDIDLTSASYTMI
Procedure, shortened: as §1

Structure (SMILES) | IC50 (human Gal-1 (hGal-1)) [µM] | IC50 (human Gal-3 (hGal-3)) [µM]
CO[C@@H]1[C@@H](n2cc(-c3ccc(Br)c(F)c3F)nn2)[C@@H](O)[C@@H](CO)O[C@@H]1Cc1cn(C23COC(C)(C2)C3)nn1 [Ex 4.1.59., (2R,3R,4S,5R,6R)-4-(4-(4-bromo-2,3-difluorophenyl)-1H-1,2,3-triazol-1-yl)-2-(hydroxymethyl)-5-methoxy-6-((1-(1-methyl-2-oxabicyclo[2.1.1]hexan-4-yl)-1H-1,2,3-triazol-4-yl)methyl)tetrahydro-2H-pyran-3-ol] | 2.03 | 0.03
CO[C@@H]1[C@@H](n2cc(-c3ccc(Cl)c(F)c3F)nn2)[C@@H](O)[C@@H](CO)O[C@@H]1Cc1cn(C2COCCC2(F)F)nn1 (single isomer, unassigned) [Example 2.1.73.B] | 1.2 | 0.06
CO[C@@H]1[C@@H](n2cc(-c3ccc(C)c(F)c3F)nn2)[C@@H](O)[C@@H](CO)O[C@@H]1Cc1cn(C2(C)CCC2)nn1 [Ex 1.1.13.] | 1.45 | 0.03
CO[C@@H]1[C@@H](n2cc(-c3ccc(F)c(F)c3F)nn2)[C@@H](O)[C@@H](CO)O[C@@H]1Cc1cn(C2(C(F)(F)F)CC2)nn1 [Ex 3.1.54.] | 0.28 | 0.05
CCC(C)(C)n1cc(C[C@H]2O[C@H](CO)[C@H](O)[C@H](n3cc(-c4ccc(Cl)c(F)c4F)nn3)[C@H]2OC)nn1 [Ex 2.1.49., (2R,3R,4S,5R,6R)-4-(4-(4-Chloro-2,3-difluorophenyl)-1H-1,2,3-triazol-1-yl)-2-(hydroxymethyl)-5-methoxy-6-((1-(tert-pentyl)-1H-1,2,3-triazol-4-yl)methyl)tetrahydro-2H-pyran-3-ol] | 1.33 | 0.03
CO[C@@H]1[C@@H](n2cc(-c3ccc(C)c(F)c3F)nn2)[C@@H](O)[C@@H](CO)O[C@@H]1Cn1cc(C(C)(C)O)nn1 [Ex 1.2.34., (2R,3R,4S,5R,6R)-4-(4-(2,3-Difluoro-4-methylphenyl)-1H-1,2,3-triazol-1-yl)-2-(hydroxymethyl)-6-((4-(2-hydroxypropan-2-yl)-1H-1,2,3-triazol-1-yl)methyl)-5-methoxytetrahydro-2H-pyran-3-ol] | 5.33 | 0.08
CO[C@@H]1[C@@H](n2cc(-c3ccc(Cl)c(F)c3F)nn2)[C@@H](O)[C@@H](CO)O[C@@H]1Cc1cn(C23CC(OC)(C2)C3)nn1 [Ex 2.1.29.] | 2.1 | 0.06
CO[C@@H]1[C@@H](n2cc(-c3ccc(Br)c(F)c3F)nn2)[C@@H](O)[C@@H](CO)O[C@@H]1Cc1cn(C2(C)CC2)nn1 [Ex 4.1.23.] | 1.8 | 0.03
CO[C@@H]1[C@@H](n2cc(-c3ccc(Cl)c(F)c3F)nn2)[C@@H](O)[C@@H](CO)O[C@@H]1Cc1cn([C@@H]2CC[C@@H]2F)nn1 (single isomer, unassigned) [Example 2.1.88.B, (2R,3R,4S,5R,6R)-4-(4-(4-chloro-2,3-difluorophenyl)-1H-1,2,3-triazol-1-yl)-6-((1-((1R*,2S*)-2-fluorocyclobutyl)-1H-1,2,3-triazol-4-yl)methyl)-2-(hydroxymethyl)-5-methoxytetrahydro-2H-pyran-3-ol] | 0.92 | 0.03
CO[C@@H]1[C@@H](n2cc(-c3ccc(F)c(F)c3F)nn2)[C@@H](O)[C@@H](CO)O[C@@H]1Cc1cn(C2(CO)CC2)nn1 [Ex 3.1.4.] | 0.81 | 0.06
CO[C@@H]1[C@@H](n2cc(-c3ccc(Br)c(F)c3F)nn2)[C@@H](O)[C@@H](CO)O[C@@H]1Cn1cc(C23CCC(N)(CC2)CC3)nn1 [Ex 4.2.39.] | 2.19 | 0.06
CO[C@@H]1[C@@H](n2cc(-c3ccc(Cl)c(F)c3F)nn2)[C@@H](O)[C@@H](CO)O[C@@H]1Cn1cc(C2(C(F)F)CC2)nn1 [Ex 2.2.51.] | 2.55 | 0.06
CO[C@@H]1[C@@H](n2cc(-c3ccc(F)c(F)c3F)nn2)[C@@H](O)[C@@H](CO)O[C@@H]1Cc1cn(C2(C)COC2)nn1 [Ex 3.1.6., (2R,3R,4S,5R,6R)-2-(hydroxymethyl)-5-methoxy-6-((1-(3-methyloxetan-3-yl)-1H-1,2,3-triazol-4-yl)methyl)-4-(4-(2,3,4-trifluorophenyl)-1H-1,2,3-triazol-1-yl)tetrahydro-2H-pyran-3-ol] | 0.19 | 0.05
COCC1(n2cc(C[C@H]3O[C@H](CO)[C@H](O)[C@H](n4cc(-c5ccc(F)c(F)c5F)nn4)[C@H]3OC)nn2)CC1 [Ex 3.1.7., (2R,3R,4S,5R,6R)-2-(Hydroxymethyl)-5-methoxy-6-((1-(1-(methoxymethyl)cyclopropyl)-1H-1,2,3-triazol-4-yl)methyl)-4-(4-(2,3,4-trifluorophenyl)-1H-1,2,3-triazol-1-yl)tetrahydro-2H-pyran-3-ol] | 1.2 | 0.12
CO[C@@H]1[C@@H](n2cc(-c3ccc(Cl)c(F)c3F)nn2)[C@@H](O)[C@@H](CO)O[C@@H]1Cc1cn(C2(CO)CC2)nn1 [Ex 2.1.4.] | 3.05 | 0.04
CO[C@@H]1[C@@H](n2cc(-c3ccc(Br)c(F)c3F)nn2)[C@@H](O)[C@@H](CO)O[C@@H]1Cn1cc(C2(CO)CC2)nn1 [Ex 4.2.4.] | 4.64 | 0.07
CO[C@@H]1[C@@H](n2cc(-c3ccc(Cl)c(F)c3F)nn2)[C@@H](O)[C@@H](CO)O[C@@H]1Cc1cn(C23CC(F)(C2)C3)nn1 [Ex 2.1.25.] | 1.96 | 0.05

Structure (SMILES) | IC50 (human Gal-1 (hGal-1)) [µM] | IC50 (human Gal-3 (hGal-3)) [µM]
CO[C@@H]1[C@@H](n2cc(-c3ccc(Cl)c(F)c3F)nn2)[C@@H](O)[C@@H](CO)O[C@@H]1Cc1cn(C2(CO)CCC2)nn1 [Ex 2.1.11.] | 2.51 | 0.05
CO[C@@H]1[C@@H](n2cc(-c3ccc(Cl)c(F)c3F)nn2)[C@@H](O)[C@@H](CO)O[C@@H]1Cc1cn(C2(C)COC2)nn1 [Ex 2.1.6.] | 0.76 | 0.04
CO[C@@H]1[C@@H](n2cc(-c3ccc(Cl)c(F)c3F)nn2)[C@@H](O)[C@@H](CO)O[C@@H]1Cc1cn([C@]2(C)CCO[C@@H]2C)nn1 (single isomer, unassigned) [Example 2.1.68.B, (2R,3R,4S,5R,6R)-4-(4-(4-chloro-2,3-difluorophenyl)-1H-1,2,3-triazol-1-yl)-6-((1-((2R*,3R*)-2,3-dimethyltetrahydrofuran-3-yl)-1H-1,2,3-triazol-4-yl)methyl)-2-(hydroxymethyl)-5-methoxytetrahydro-2H-pyran-3-ol] | 0.67 | 0.02
CO[C@@H]1[C@@H](n2cc(-c3ccc(Cl)c(F)c3F)nn2)[C@@H](O)[C@@H](CO)O[C@@H]1Cc1cn([C@@H]2COCC[C@H]2F)nn1 [Example 2.1.65.A, (2R,3R,4S,5R,6R)-4-(4-(4-chloro-2,3-difluorophenyl)-1H-1,2,3-triazol-1-yl)-6-((1-((3R,4R)-4-fluorotetrahydro-2H-pyran-3-yl)-1H-1,2,3-triazol-4-yl)methyl)-2-(hydroxymethyl)-5-methoxytetrahydro-2H-pyran-3-ol] | 1.8 | 0.06
COCC1(n2cc(C[C@H]3O[C@H](CO)[C@H](O)[C@H](n4cc(-c5ccc(Cl)c(F)c5F)nn4)[C@H]3OC)nn2)COC1 [Ex 2.1.21.] | 0.9 | 0.05
CO[C@@H]1[C@@H](n2cc(-c3ccc(Cl)c(F)c3F)nn2)[C@@H](O)[C@@H](CO)O[C@@H]1Cn1cc(C2(O)CC2)nn1 [Ex 2.2.36.] | 3.16 | 0.09
CO[C@@H]1[C@@H](n2cc(-c3ccc(C)c(F)c3F)nn2)[C@@H](O)[C@@H](CO)O[C@@H]1Cc1cn(C23CC(C(F)(F)F)(C2)C3)nn1 [Ex 1.1.24.] | 5.04 | 0.08
CO[C@@H]1[C@@H](n2cc(-c3ccc(Cl)c(F)c3F)nn2)[C@@H](O)[C@@H](CO)O[C@@H]1Cn1cc(C2(C)COC2)nn1 [Ex 2.2.6.] | 1.17 | 0.03
CO[C@@H]1[C@@H](n2cc(-c3ccc(Cl)c(F)c3F)nn2)[C@@H](O)[C@@H](CO)O[C@@H]1Cc1cn(C2COCC2(F)F)nn1 (mixture of isomers) [Example 2.1.90.B] | 0.91 | 0.02
CO[C@@H]1[C@@H](n2cc(-c3ccc(F)c(F)c3F)nn2)[C@@H](O)[C@@H](CO)O[C@@H]1Cc1cn([C@]2(C)C[C@@H](O)C2)nn1 [Ex 3.1.27.] | 0.14 | 0.03
CO[C@@H]1[C@@H](n2cc(-c3ccc(Br)c(F)c3F)nn2)[C@@H](O)[C@@H](CO)O[C@@H]1Cn1cc(C23CC(C2)C3)nn1 [Ex 4.2.12.] | 3.31 | 0.09
CO[C@@H]1[C@@H](n2cc(-c3ccc(C)c(F)c3F)nn2)[C@@H](O)[C@@H](CO)O[C@@H]1Cc1cn(C2CC3(COC3)C2)nn1 [Ex 1.1.16.] | 3.69 | 0.05
CO[C@@H]1[C@@H](n2cc(-c3ccc(Cl)c(F)c3F)nn2)[C@@H](O)[C@@H](CO)O[C@@H]1Cn1cc([C@H]2C[C@@H](N)C2)nn1 [Ex 2.2.87.] | 7.15 | 0.12
CO[C@@H]1[C@@H](n2cc(-c3ccc(F)c(F)c3F)nn2)[C@@H](O)[C@@H](CO)O[C@@H]1Cn1cc(C2(O)CCCC2)nn1 [Ex 3.2.33.] | 1.25 | 0.09
CO[C@@H]1[C@@H](n2cc(-c3ccc(Br)c(F)c3F)nn2)[C@@H](O)[C@@H](CO)O[C@@H]1Cn1cc(C2(C)CCC2)nn1 [Ex 4.2.13.] | 1.93 | 0.05
CO[C@@H]1[C@@H](n2cc(-c3ccc(Br)c(F)c3F)nn2)[C@@H](O)[C@@H](CO)O[C@@H]1Cc1cn([C@H]2CCC[C@@H]2F)nn1 (relative stereo) [Example 4.1.79.CD, (2R,3R,4S,5R,6R)-4-(4-(4-bromo-2,3-difluorophenyl)-1H-1,2,3-triazol-1-yl)-6-((1-((1S*,2S*)-2-fluorocyclopentyl)-1H-1,2,3-triazol-4-yl)methyl)-2-(hydroxymethyl)-5-methoxytetrahydro-2H-pyran-3-ol] | 4.96 | 0.07
CO[C@@H]1[C@@H](n2cc(-c3ccc(Br)c(F)c3F)nn2)[C@@H](O)[C@@H](CO)O[C@@H]1Cc1cn([C@H]2CCC[C@@H]2O)nn1 [Ex 4.1.3.] | 4.7 | 0.04
